The values below come from article PMC4685510, “A Cell Biologist’s Field Guide to Aurora Kinase Inhibitors” (Frontiers in Oncology, 2015).

Assay in all cases: biochemical
Holding throughout (format): biochemical

Test [1] deals with 363 human kinases (including Aurora A/B/C) (Homo sapiens, UniProt O75716). The following applies: STK16; for remaining activity at 0.5 µM / remaining activity at 0.1 µM: read-out: % Enzyme Activity (relative to DMSO controls); for remaining activity at 0.1 µM: 100 nM.
Text: (§1) However, the Aurora A/B selectivity ratios derived from our in vitro and in vivo data can be compared to prioritize inhibitors.
Test [2] concerns the target 363 human kinases (including Aurora A/B/C) (Homo sapiens, UniProt P07948). To be noted: LYN; for remaining activity at 0.5 µM / remaining activity at 0.1 µM: read-out: % Enzyme Activity (relative to DMSO controls); for remaining activity at 0.1 µM: 100 nM.
Text: as §1
Test [3] has as its target 363 human kinases (including Aurora A/B/C) (Homo sapiens, UniProt P68400). To be noted: CK2a, [ATP] 20 µM, read-out: % Enzyme Activity (relative to DMSO controls); for remaining activity at 0.5 µM: 500 nM; for remaining activity at 0.1 µM: 100 nM.
Text: as §1
The target in test [4] is T1, 363 human kinases (including Aurora A/B/C) (Homo sapiens, UniProt O00444).
T1 sequence (O00444 1-970): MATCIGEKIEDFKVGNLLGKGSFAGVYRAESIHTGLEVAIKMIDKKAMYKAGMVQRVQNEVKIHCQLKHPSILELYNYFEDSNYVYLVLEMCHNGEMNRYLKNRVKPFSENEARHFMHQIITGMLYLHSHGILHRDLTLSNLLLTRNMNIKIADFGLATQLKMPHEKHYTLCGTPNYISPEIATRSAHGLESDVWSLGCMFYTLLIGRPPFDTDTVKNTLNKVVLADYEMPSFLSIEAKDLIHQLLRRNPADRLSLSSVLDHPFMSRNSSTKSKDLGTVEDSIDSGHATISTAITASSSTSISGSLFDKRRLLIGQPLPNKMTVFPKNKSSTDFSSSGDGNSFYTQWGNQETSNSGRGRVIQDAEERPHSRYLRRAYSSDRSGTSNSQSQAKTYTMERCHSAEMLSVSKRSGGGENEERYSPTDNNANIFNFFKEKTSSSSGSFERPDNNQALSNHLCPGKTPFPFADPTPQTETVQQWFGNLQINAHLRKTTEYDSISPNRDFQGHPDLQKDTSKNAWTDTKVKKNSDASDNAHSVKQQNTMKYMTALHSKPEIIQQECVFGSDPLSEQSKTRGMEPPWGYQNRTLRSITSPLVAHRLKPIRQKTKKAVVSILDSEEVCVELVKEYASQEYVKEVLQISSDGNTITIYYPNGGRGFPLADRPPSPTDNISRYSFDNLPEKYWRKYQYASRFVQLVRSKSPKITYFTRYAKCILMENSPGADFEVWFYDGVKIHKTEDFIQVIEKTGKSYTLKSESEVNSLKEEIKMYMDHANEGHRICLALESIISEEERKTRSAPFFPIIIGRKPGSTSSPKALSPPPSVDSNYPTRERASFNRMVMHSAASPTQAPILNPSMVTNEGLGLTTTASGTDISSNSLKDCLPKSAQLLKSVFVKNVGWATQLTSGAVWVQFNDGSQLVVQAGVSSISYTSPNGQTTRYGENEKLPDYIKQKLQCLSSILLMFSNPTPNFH
To be noted: PLK4/SAK; for remaining activity at 0.5 µM / remaining activity at 0.1 µM: read-out: % Enzyme Activity (relative to DMSO controls); for remaining activity at 0.1 µM: 100 nM.
Text: as §1

Test [5] deals with T2, 363 human kinases (including Aurora A/B/C) (Homo sapiens, UniProt O43318).
T2 sequence (O43318 1-606): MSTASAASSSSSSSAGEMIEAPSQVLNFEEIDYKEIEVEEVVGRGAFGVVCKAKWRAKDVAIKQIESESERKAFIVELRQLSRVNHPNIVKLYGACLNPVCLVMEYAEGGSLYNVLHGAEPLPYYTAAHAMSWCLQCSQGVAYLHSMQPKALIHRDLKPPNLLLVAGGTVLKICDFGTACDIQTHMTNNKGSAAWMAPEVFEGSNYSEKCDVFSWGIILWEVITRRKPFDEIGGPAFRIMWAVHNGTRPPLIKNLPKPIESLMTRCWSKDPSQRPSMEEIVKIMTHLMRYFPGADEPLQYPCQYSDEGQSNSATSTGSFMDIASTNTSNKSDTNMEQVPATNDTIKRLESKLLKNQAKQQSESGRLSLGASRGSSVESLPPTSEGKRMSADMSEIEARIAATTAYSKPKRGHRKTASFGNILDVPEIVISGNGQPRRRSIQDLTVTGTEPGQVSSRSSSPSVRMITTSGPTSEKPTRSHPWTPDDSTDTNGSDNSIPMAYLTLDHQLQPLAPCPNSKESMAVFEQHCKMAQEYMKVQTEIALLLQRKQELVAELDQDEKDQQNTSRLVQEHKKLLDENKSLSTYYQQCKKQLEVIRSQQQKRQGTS
The following applies: TAK1; for remaining activity at 0.5 µM / remaining activity at 0.1 µM: read-out: % Enzyme Activity (relative to DMSO controls); for remaining activity at 0.1 µM: 100 nM.
Text: as §1

Test [6] addresses 363 human kinases (including Aurora A/B/C) (Homo sapiens, UniProt Q02779). The following applies: MLK2/MAP3K10; for remaining activity at 0.5 µM / remaining activity at 0.1 µM: read-out: % Enzyme Activity (relative to DMSO controls); for remaining activity at 0.1 µM: 100 nM.
Text: as §1
The target of test [7] is 363 human kinases (including Aurora A/B/C) (Homo sapiens, UniProt P24941). To be noted: for % Enzyme Activity (relative to DMSO controls) / remaining activity at 0.5 µM: 500 nM; for remaining activity at 0.5 µM / remaining activity at 0.1 µM: read-out: % Enzyme Activity (relative to DMSO controls); for remaining activity at 0.1 µM: 100 nM.
Text: as §1
The target of test [8] is 363 human kinases (including Aurora A/B/C) (Homo sapiens, UniProt Q6IQ55). The following applies: TTBK2; for remaining activity at 0.5 µM / remaining activity at 0.1 µM: read-out: % Enzyme Activity (relative to DMSO controls); for remaining activity at 0.1 µM: 100 nM.
Text: as §1
For test [9], the target named is 363 human kinases (including Aurora A/B/C) (Homo sapiens, UniProt Q9UIK4). The following applies: DAPK2, [ATP] 5 µM; for remaining activity at 0.5 µM / remaining activity at 0.1 µM: read-out: % Enzyme Activity (relative to DMSO controls); for remaining activity at 0.1 µM: 100 nM.
Text: as §1

Where two headings read alike, the source gives them in different places.

Sequence of 363 human kinases (including Aurora A/B/C) (Homo sapiens, UniProt Q02779) (Q02779 whole entry): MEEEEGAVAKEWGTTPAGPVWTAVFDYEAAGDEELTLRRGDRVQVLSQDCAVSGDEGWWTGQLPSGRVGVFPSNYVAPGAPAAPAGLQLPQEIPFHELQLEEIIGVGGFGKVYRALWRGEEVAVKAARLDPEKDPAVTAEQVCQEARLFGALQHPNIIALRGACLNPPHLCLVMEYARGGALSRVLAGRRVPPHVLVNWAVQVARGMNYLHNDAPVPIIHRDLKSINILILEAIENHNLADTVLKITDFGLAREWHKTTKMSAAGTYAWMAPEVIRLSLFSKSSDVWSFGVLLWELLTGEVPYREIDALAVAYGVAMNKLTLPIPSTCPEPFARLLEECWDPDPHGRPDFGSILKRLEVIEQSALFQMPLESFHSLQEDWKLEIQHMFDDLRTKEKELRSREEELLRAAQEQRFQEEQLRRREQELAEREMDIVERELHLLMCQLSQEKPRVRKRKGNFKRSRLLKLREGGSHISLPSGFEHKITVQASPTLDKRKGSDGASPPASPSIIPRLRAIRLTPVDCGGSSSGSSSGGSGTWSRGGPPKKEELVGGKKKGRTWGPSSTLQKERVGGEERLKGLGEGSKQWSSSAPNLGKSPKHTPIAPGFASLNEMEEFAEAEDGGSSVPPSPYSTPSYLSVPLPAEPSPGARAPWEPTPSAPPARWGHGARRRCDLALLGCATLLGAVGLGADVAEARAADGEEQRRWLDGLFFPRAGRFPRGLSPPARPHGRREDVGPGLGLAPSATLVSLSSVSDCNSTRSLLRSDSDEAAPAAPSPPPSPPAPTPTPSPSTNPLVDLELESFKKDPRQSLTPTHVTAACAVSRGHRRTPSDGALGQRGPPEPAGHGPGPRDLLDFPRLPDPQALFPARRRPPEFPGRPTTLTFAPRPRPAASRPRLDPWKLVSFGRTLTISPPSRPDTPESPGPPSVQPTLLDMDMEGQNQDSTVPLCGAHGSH
Sequence of 363 human kinases (including Aurora A/B/C) (Homo sapiens, UniProt Q9UIK4) (Q9UIK4 whole entry): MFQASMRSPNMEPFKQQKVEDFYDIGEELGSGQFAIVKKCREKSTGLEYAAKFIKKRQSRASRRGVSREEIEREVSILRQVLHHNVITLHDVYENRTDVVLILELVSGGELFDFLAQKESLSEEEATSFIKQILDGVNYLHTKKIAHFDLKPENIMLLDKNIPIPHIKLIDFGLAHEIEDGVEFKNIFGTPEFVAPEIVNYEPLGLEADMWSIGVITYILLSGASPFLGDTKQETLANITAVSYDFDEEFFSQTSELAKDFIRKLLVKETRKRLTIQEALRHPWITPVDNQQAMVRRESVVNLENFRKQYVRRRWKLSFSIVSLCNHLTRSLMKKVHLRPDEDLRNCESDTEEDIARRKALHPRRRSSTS
Sequence of 363 human kinases (including Aurora A/B/C) (Homo sapiens, UniProt Q6IQ55) (Q6IQ55 whole entry): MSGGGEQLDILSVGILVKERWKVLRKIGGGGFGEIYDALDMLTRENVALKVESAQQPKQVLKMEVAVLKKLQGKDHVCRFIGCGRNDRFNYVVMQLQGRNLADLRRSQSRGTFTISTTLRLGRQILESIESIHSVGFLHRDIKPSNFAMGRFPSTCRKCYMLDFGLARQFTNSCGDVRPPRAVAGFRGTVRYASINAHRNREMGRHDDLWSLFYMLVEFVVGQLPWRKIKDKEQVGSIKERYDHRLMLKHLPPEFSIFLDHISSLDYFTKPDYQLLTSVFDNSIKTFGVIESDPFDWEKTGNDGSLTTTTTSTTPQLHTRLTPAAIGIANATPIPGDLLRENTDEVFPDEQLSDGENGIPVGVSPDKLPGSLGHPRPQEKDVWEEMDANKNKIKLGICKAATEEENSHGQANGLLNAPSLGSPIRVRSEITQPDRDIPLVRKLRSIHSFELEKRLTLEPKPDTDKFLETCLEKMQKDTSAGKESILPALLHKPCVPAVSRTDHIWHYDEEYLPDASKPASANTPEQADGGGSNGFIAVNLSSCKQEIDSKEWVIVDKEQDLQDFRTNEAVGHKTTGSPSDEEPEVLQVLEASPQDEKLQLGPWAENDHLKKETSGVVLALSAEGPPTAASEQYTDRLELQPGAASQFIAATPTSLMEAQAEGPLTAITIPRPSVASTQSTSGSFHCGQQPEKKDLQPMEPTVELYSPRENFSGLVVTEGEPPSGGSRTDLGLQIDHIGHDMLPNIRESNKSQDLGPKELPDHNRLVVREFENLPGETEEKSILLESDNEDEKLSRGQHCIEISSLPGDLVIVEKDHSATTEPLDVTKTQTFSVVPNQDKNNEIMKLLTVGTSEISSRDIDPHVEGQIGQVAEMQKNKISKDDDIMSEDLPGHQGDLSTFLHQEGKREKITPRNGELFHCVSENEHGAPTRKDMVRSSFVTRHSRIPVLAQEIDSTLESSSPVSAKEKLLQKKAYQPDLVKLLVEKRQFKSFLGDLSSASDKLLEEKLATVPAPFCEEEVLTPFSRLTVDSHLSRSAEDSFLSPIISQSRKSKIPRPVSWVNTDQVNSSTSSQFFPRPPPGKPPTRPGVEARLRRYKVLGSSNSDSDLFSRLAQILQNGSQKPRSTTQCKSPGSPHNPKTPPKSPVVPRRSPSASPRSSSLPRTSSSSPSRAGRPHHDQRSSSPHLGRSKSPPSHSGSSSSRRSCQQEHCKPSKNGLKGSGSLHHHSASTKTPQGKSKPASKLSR
Sequence of 363 human kinases (including Aurora A/B/C) (Homo sapiens, UniProt P68400) (P68400 whole entry): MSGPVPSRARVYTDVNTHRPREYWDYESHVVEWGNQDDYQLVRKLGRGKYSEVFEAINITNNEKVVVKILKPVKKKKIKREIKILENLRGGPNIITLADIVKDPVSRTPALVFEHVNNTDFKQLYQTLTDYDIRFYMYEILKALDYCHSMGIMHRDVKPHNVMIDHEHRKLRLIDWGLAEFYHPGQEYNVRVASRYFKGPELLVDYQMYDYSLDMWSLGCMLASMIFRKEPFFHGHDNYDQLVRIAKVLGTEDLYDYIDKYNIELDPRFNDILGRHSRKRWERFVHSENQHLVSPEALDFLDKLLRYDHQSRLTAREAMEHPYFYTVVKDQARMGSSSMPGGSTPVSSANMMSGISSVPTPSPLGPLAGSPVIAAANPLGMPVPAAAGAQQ
Sequence of 363 human kinases (including Aurora A/B/C) (Homo sapiens, UniProt O75716) (O75716 whole entry): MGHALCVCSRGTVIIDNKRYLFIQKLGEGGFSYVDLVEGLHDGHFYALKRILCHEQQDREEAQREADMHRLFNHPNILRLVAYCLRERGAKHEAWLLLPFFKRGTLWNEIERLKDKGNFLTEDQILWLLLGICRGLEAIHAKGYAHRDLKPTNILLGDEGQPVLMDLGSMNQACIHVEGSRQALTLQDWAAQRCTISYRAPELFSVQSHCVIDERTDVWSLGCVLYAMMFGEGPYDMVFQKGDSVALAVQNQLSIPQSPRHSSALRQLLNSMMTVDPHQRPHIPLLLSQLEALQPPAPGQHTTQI
Sequence of 363 human kinases (including Aurora A/B/C) (Homo sapiens, UniProt P07948) (P07948 whole entry): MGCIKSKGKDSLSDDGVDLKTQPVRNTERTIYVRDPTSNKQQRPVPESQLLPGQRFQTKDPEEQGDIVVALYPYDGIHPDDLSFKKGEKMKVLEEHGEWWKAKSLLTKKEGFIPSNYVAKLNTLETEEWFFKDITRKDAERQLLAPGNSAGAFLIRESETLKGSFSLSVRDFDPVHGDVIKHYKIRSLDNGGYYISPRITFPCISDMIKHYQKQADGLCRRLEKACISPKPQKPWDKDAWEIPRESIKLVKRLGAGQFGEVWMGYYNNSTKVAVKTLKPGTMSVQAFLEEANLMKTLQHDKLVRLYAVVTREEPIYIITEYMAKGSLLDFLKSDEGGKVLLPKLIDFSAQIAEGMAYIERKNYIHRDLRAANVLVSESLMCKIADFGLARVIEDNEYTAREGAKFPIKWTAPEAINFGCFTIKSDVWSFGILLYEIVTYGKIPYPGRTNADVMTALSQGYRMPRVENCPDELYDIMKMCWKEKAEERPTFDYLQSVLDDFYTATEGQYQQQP

As to `O=C(c1cccc(Cl)c1F)N1CCN(Cc2cccc(Nc3nccs3)n2)CC1` [MK-8745], the “% Enzyme Activity (relative to DMSO controls)” value in test [1] (500 nM) is 70.34%; in test [2] (500 nM), 64.18%; in test [4] (500 nM), 70.47%; in test [5] (500 nM) it was 93.95%; in test [6] (500 nM), 79.50%; in [7] (CDK2/Cyclin A1, [ATP] 100 µM) it was 75.87%. Moreover, the “% Enzyme Activity (relative to DMSO controls)” value stood at 83.95% in test [7] (CDK2/cyclin A, [ATP] 100 µM); 85.62% in test [7] (CDK2/cyclin E, [ATP] 5 µM); 90.54% in test [7] (CDK2/cyclin O, [ATP] 30 µM); 109.64% in [8] (500 nM); 102.56% in test [9] (500 nM). Moreover, the remaining activity at 0.5 µM is 71.1% in test [1] (500 nM); 65.1% in test [2] (500 nM); 91.9% in test [3]; 71.4% in [4] (500 nM); 96.6% in [5] (500 nM); 79.9% in [6] (500 nM). The remaining activity at 0.5 µM in [7] (CDK2/Cyclin A1, [ATP] 100 µM) was determined as 79.6%; in [7] (CDK2/cyclin A, [ATP] 100 µM), 85.1%; in test [7] (CDK2/cyclin E, [ATP] 5 µM) it was 86.3%; in test [7] (CDK2/cyclin O, [ATP] 30 µM) it was 90.6%; in test [8] (500 nM) it was 110%; in test [9] (500 nM), 105%.
As to `CCn1cc(-c2ccnc3[nH]c(-c4cccc(CN(C)C)c4)cc23)c(-c2ccc(NC(=O)N(C)C)cc2)n1` [GSK1070916], the remaining activity at 0.1 µM in test [1] amounted to 107%; in test [2], 79.2%; in test [3], 99.6%; in [4] it was 115%; in [5] it was 99%; in test [6] it was 75.6%. For the same compound, the remaining activity at 0.1 µM was determined as 89.8% in [7] (CDK2/Cyclin A1, [ATP] 100 µM); 104% in test [7] (CDK2/cyclin A, [ATP] 100 µM); 93% in [7] (CDK2/cyclin E, [ATP] 5 µM); 94.7% in [7] (CDK2/cyclin O, [ATP] 30 µM); 119% in [8]; 111% in [9].
For `O=C(O)[C@]1(Cc2cccc(Nc3nccs3)n2)CC[C@@H](Oc2cccc(Cl)c2F)CC1` [MK-5108], the remaining activity at 0.1 µM came to 70.7% in [1]; 76.9% in test [2]; 104% in test [3]; 21.9% in test [4]; 93.8% in test [5]; 23.5% in test [6]. Moreover, the remaining activity at 0.1 µM in test [7] (CDK2/Cyclin A1, [ATP] 100 µM) is 100%; in [7] (CDK2/cyclin A, [ATP] 100 µM) it was 97.7%; in test [7] (CDK2/cyclin E, [ATP] 5 µM) it was 90.3%; in [7] (CDK2/cyclin O, [ATP] 30 µM) it was 88.6%; in test [8], 99.8%; in test [9], 103%. Moreover, the remaining activity at 0.5 µM in [1] (500 nM) is 15.2%; in test [2] (500 nM) it was 45.6%; in test [3], 105%; in [4] (500 nM) it was 9.25%; in [5] (500 nM), 79.1%; in test [6] (500 nM) it was 5.55%. Further, the remaining activity at 0.5 µM came to 73.4% in test [7] (CDK2/Cyclin A1, [ATP] 100 µM); 75.7% in [7] (CDK2/cyclin A, [ATP] 100 µM); 83.3% in test [7] (CDK2/cyclin E, [ATP] 5 µM); 84.7% in test [7] (CDK2/cyclin O, [ATP] 30 µM); 111% in test [8] (500 nM); 111% in [9] (500 nM).
